Test results reported in patent publication US6756233B1, “Method for measuring free ligands in biological fluids, and assay kits for measuring same” (priority 1985, dated 2004).
“And” between values parts separate entries of the source, which are not always exact repeats. Equal values may be shown once. Read-outs that look alike come from different tables or passages of the source.

Legend:
albumin [1] = biological target: T1, albumin (Homo sapiens, UniProt P02768); settings: cited from earlier work
T1 sequence (P02768 25-609): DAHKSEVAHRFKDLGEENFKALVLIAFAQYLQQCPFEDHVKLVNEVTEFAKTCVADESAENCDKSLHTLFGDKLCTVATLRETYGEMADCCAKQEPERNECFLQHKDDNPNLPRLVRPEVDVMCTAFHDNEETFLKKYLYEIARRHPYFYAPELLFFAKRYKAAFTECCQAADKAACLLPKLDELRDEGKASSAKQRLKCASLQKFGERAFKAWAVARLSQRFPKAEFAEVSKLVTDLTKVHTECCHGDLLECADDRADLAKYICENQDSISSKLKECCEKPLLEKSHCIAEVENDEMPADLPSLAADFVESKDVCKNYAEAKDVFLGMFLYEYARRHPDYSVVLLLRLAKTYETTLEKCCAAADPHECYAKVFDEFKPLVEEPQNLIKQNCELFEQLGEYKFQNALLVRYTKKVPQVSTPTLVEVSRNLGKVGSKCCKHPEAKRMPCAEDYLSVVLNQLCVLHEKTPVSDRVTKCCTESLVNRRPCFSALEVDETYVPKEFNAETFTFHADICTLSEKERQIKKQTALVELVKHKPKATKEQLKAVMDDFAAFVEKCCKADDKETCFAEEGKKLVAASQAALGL

albumin and/or SHBG = test system: albumin and/or SHBG; design: species or system human
Method: Testosterone was selected as a representative member of this family. […] This analog tracer was subsequently compounded in 0.01 M HEPES buffer, pH=7.4, containing 1 mg/ml charcoal-absorbed human serum albumin and 0.01% sodium azide. Blocking agents were added, as described in the specific examples below.

[2] = biological target: T2, sex hormone-binding globulin (SHBG) (Homo sapiens, UniProt P04278); assay: Free testosterone assay, SHBG-spiked serum pool (Example 3); settings: charcoal-absorbed human serum pool spiked with 400 μg SHBG/milliliter
T2 sequence (P04278 30-402): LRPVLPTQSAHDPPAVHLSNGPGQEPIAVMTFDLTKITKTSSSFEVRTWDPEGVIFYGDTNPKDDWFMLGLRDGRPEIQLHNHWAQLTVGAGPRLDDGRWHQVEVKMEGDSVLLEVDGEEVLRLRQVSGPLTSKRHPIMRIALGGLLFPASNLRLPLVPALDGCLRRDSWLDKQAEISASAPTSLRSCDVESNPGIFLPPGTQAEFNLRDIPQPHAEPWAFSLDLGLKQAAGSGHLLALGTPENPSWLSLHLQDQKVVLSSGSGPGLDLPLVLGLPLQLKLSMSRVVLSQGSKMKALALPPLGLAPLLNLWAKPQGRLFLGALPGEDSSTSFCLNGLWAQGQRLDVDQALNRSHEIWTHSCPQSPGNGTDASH
Method: To investigate the effect of sex hormone-binding globulin (SHBG) levels on the free testosterone assay system, a charcoal-absorbed human serum pool was spiked with 400 μg SHBG/milliliter, a level which is approximately 10 times normal.
Since charcoal absorption removes testosterone from the serum pool, it should have free (and total) testosterone concentrations of zero—that is, percent bound values of approximately 100% B/Bo—both before and after spiking.

transport proteins = settings: single samples
Method: Free testosterone calibrators, prepared by adding different amounts of testosterone to human serum free of any apparent testosterone, were calibrated by direct equilibrium dialysis and assigned free testosterone values in pg/ml. […] The tubes are incubated for 4 hours at 37° C., then decanted and radioactivity counted. Results are computed by interpolation to from the calibration curve.

albumin [3] = biological target: T1, albumin; assay: Free testosterone assay, effect of oleic acid (Example 6); design: from tissue; host or cells: patient serum samples
Method: Since non-esterified free fatty acids (NEFA) have a higher association constant to albumin than does testosterone, addition of NEFA should displace free testosterone from albumin. This was confirmed by an experiment in which various amounts of oleic acid were added to each of three patient samples.

[4] = test system: anti-T4 antibody-coated tubes; assay: Free T4 assay of 20 samples with tracers holding different blocking agents (Example 5); design: species or system rabbits
Method: The tubes are then incubated for 60 minutes at 37° C. After this incubation the tubes are decanted and the bound radioactivity is counted. Results are calculated from the calibration curve and expressed in ng/dl.
Iodinated T4 analog was compounded as described above and divided into five aliquots. To each aliquot the following reagents were added.
Considering tracer 1 as the reference and comparing the others to it, the following results were obtained.

For `O=[N+]([O-])c1ccc(O)c([N+](=O)[O-])c1` [2,4-dinitrophenol], the “association constant, albumin (single aromatic compounds)” value (albumin [1]) is given as 11,000 and the “effect on protein-bound testosterone and tracer” value (albumin and/or SHBG) is given as “displace testosterone from albumin and/or SHBG”.

For `O=S(=O)(O)c1cccc2cccc(Nc3ccccc3)c12` [ANS, 8-anilino-1-naphthalenesulfonic acid], the “effect on protein-bound testosterone and tracer” value (albumin and/or SHBG) was “displace testosterone from albumin and/or SHBG”.

In the case of “6-hydroxytestosterone-19-carboxymethyl ether histamine”, the “binding to endogenous binders” value (endogenous binders) was “does not bind to endogenous binders”, the “percent bound value, B/Bo” value [2] was 99% and the “percent bound (% B/Bo) After charcoal absorption” value (transport proteins; 3rd Trimester) was 99% and 96% and 97%. For the same compound, the “percent bound (% B/Bo) After charcoal absorption” value (transport proteins; Normal Females) was 105% and 104%.

In the case of `O=C1OC(c2ccc(O)c(S(=O)(=O)O)c2)(c2ccc(O)c(S(=O)(=O)O)c2)c2c(Br)c(Br)c(Br)c(Br)c21` [sulfobromophthalein], the “effect on protein-bound testosterone and tracer” value (albumin and/or SHBG) was “inhibits the binding of the analog tracer to albumin without displacing testosterone bound to albumin”.

With `CCCCCCCC/C=C\CCCCCCCC(=O)O` [oleic acid] the “apparent free testosterone level, Mean” value (albumin [3]; Oleic Acid Added 2.5 mmol/l) was 7.9 pg/mL, the “apparent free testosterone level, Mean” value (albumin [3]; Oleic Acid Added 5.0 mmol/l) was 14.8 pg/mL and the “apparent free testosterone level, Patients 1-3” value (albumin [3]; Oleic Acid Added 5.0 mmol/l) was 11.6 pg/mL and 11.1 pg/mL and 21.8 pg/mL. The “apparent free testosterone level, Mean” value (albumin [3]; Oleic Acid Added 7.5 mmol/l) was 23.2 pg/mL, the “apparent free testosterone level, Mean” value (albumin [3]; Oleic Acid Added 10.0 mmol/l) was 32.0 pg/mL and the “oleic acid concentration in the tracer that displaces bound unlabeled T4 from albumin” value [4] was “greater than 1.0 mmol/l”.
